According to article PMC6934184, “Selective DNA-PKcs inhibition extends the therapeutic index of localized radiotherapy and chemotherapy” (The Journal of Clinical Investigation, 2019):

Biological target: T1, ALK R1275Q (Homo sapiens, UniProt Q9UM73, R1275Q)
T1 construct: purchased Thermo Fisher Scientific (Life Technologies) SelectScreen
Experiment: SelectScreen LanthaScreen
Format: binding
Settings: read-out: % displacement
Protocol: The in vitro kinase selectivity of NU5455 was determined using the SelectScreen Broad Assay Panel (Thermo Fisher Scientific) involving activity and binding assays (Supplemental Table 1). […] Class IA PI3Ks were measured using the p85α subunit.
Kinase [ATP] % Assay Kinase [ATP] % Assay Kinase [ATP] % Assay Kinase [ATP] % Assay
DNA-PK Km app 98.3 Z LATS2 n/a 4.7 L KIT D820E n/a 1.3 L GSK3B (GSK3 beta) Km app -2.5 Z
PIK3C3 (hVPS34) Km app 85.9 A PRKCZ (PKC zeta) Km app 4.7 Z GRK1 n/a 1.3 L BMPR2 n/a -2.5 L
PIK3C2B (PI3K-C2 beta) 10 28.9 A FGFR1 Km app 4.7 Z BRSK2 n/a 1.2 L CDC42 BPB (MRCKB) Km app -2.5 Z
SNF1LK2 Km app 26.6 Z MINK1 Km app 4.6 Z NUAK1 (ARK5) Km app 1.2 A AMPK (A2/B2/G2) n/a -2.6 L
HCK Km app 18.0 Z CSF1R (FMS) Km app 4.3 Z CDK9/cyclin K n/a 1.0 L PRKG1 Km app -2.7 Z
NEK2 Km app 17.8 Z CSNK1G3 (CK1 gamma 3) Km app 4.2 Z NUAK2 n/a 1.0 L KIT T670E n/a -2.8 L
ALK Km app 17.3 Z STK32C (YANK3) n/a 4.2 L CDK2/cyclin O n/a 0.9 L ERBB4 (HER4) Km app -2.8 Z
FGFR3 K650M n/a 16.5 L STK22D (TSSK1) Km app 4.2 Z CAMKK2 (CaMKK beta) n/a 0.9 L PLK4 n/a -2.8 L
SIK3 n/a 16.1 L TAOK3 (JIK) n/a 4.2 L FGFR3 Km app 0.9 Z GRK7 Km app -3.0 Z
LYN A Km app 15.2 Z RPS6KA4 (MSK2) Km app 4.2 Z ULK2 n/a 0.9 L MAPKAPK2 Km app -3.1 Z
BMPR1B (ALK6) n/a 14.5 L PTK2B (FAK2) Km app 4.2 Z KIT D816V n/a 0.9 L FGFR4 Km app -3.1 Z
INSRR (IRR) Km app 14.1 Z CLK2 Km app 4.1 Z CAMK1 (CaMK1) 10 0.8 A CASK n/a -3.1 L
PLK2 Km app 14.1 Z STK24 (MST3) Km app 4.1 Z PTK6 (Brk) Km app 0.7 Z GRK5 Km app -3.2 Z
PRKACA (PKA) Km app 14.0 Z CAMK1D (CaMKI delta) Km app 4.1 Z CAMK2B (CaMKII beta) Km app 0.7 Z EGFR (ErbB1) T790M Km app -3.3 Z
EIF2AK2 (PKR) n/a 13.3 L INSR Km app 4.1 Z ACVR1 (ALK2) n/a 0.7 L PAK4 Km app -3.3 Z
PRKX Km app 12.5 Z IRAK1 Km app 4.0 A ABL1 H396P n/a 0.6 L DAPK3 (ZIPK) Km app -3.4 Z
FGR Km app 12.1 Z SRC N1 Km app 3.9 Z MERTK (cMER) A708S n/a 0.6 L RET M918T n/a -3.5 L
CLK1 Km app 11.7 Z SRPK2 Km app 3.9 Z MAPKAPK5 (PRAK) Km app 0.6 Z PRKCQ (PKC theta) Km app -3.7 Z
MARK3 Km app 11.4 Z RPS6KA6 (RSK4) Km app 3.8 Z AKT1 (PKB alpha) Km app 0.5 Z CAMKK1 (CAMKKA) n/a -3.8 L
PDGFRB (PDGFR beta) Km app 11.0 Z GRK6 Km app 3.7 Z NTRK3 (TRKC) Km app 0.4 Z FLT3 D835Y Km app -3.9 Z
PRKCN (PKD3) Km app 10.7 Z PKN1 (PRK1) Km app 3.6 Z ZAP70 Km app 0.3 Z ROCK2 Km app -4.1 Z
STK16 (PKL12) n/a 10.5 L MAP3K8 (COT) 100 3.5 Z CSNK1A1 (CK1 alpha 1) Km app 0.3 Z CHUK (IKK alpha) Km app -4.2 A
FES (FPS) Km app 10.4 Z FLT4 (VEGFR3) Km app 3.5 Z MYLK (MLCK) n/a 0.2 L AXL Km app -4.2 Z
ABL1 Km app 10.4 Z GRK4 Km app 3.5 Z MKNK2 (MNK2) n/a 0.2 L PIM2 Km app -4.3 Z
MUSK Km app 10.3 Z FRK (PTK5) Km app 3.4 Z AMPK (A1/B1/G3) n/a 0.2 L PAK1 Km app -4.4 Z
MAPK1 (ERK2) Km app 10.1 Z FYN A n/a 3.3 L MAP3K2 (MEKK2) n/a 0.1 L BMPR1A (ALK3) n/a -4.4 L
BRAF 100 9.9 Z CDK1/cyclin A2 n/a 3.3 L CDK8/cyclin C n/a 0.1 L STK4 (MST1) Km app -4.4 Z
IGF1R Km app 9.7 Z KIT V559D T670I n/a 3.1 L MARK2 Km app 0.1 Z PRKCH (PKC eta) Km app -4.6 Z
MAPK14 (p38 alpha) Km app 9.7 Z SPHK2 10 3.1 A ICK n/a 0.0 L SGKL (SGK3) Km app -4.6 Z
LCK Km app 9.6 Z FGFR3 G697C n/a 3.1 L FGFR2 Km app 0.0 Z PI4KB (PI4K beta) Km app -4.7 A
MAPK11 (p38 beta) Km app 9.5 Z RIPK2 n/a 3.1 L AKT2 (PKB beta) Km app 0.0 Z PRKCE (PKC epsilon) Km app -4.9 Z
SRC Km app 9.5 Z PAK6 Km app 3.0 Z EPHB2 Km app -0.1 Z PHKG1 Km app -5.0 Z
CHEK1 (CHK1) Km app 9.3 Z LYN B Km app 3.0 Z TGFBR2 n/a -0.1 L PDGFRA D842V Km app -5.0 Z
CAMK2D (CaMKII delta) Km app 9.3 Z DAPK2 n/a 2.9 L TEK (Tie2) Km app -0.1 Z PRKG2 (PKG2) Km app -5.1 Z
PLK1 Km app 9.2 Z EPHA4 Km app 2.9 Z AURKA (Aurora A) Km app -0.1 Z TYRO3 (RSE) Km app -5.1 Z
RET Y791F Km app 9.2 Z PIK3CG (p110 gamma) Km app 2.9 A KIT D816H n/a -0.2 L TAOK2 (TAO1) Km app -5.1 Z
FLT3 Km app 9.1 Z HIPK1 (Myak) Km app 2.8 Z KIT N822K n/a -0.2 L EPHB4 Km app -5.3 Z
MAPK10 (JNK3) 100 9.0 Z ADRBK2 (GRK3) Km app 2.8 Z PRKACG (PRKAC gamma) n/a -0.2 L AURKC (Aurora C) Km app -5.4 Z
CSNK2A2 (CK2 alpha 2) Km app 8.7 Z STK17B (DRAK2) n/a 2.7 L TEK (TIE2) Y1108F n/a -0.3 L JAK1 Km app -5.7 Z […]

T1 sequence (Q9UM73 19-1620 R1275Q): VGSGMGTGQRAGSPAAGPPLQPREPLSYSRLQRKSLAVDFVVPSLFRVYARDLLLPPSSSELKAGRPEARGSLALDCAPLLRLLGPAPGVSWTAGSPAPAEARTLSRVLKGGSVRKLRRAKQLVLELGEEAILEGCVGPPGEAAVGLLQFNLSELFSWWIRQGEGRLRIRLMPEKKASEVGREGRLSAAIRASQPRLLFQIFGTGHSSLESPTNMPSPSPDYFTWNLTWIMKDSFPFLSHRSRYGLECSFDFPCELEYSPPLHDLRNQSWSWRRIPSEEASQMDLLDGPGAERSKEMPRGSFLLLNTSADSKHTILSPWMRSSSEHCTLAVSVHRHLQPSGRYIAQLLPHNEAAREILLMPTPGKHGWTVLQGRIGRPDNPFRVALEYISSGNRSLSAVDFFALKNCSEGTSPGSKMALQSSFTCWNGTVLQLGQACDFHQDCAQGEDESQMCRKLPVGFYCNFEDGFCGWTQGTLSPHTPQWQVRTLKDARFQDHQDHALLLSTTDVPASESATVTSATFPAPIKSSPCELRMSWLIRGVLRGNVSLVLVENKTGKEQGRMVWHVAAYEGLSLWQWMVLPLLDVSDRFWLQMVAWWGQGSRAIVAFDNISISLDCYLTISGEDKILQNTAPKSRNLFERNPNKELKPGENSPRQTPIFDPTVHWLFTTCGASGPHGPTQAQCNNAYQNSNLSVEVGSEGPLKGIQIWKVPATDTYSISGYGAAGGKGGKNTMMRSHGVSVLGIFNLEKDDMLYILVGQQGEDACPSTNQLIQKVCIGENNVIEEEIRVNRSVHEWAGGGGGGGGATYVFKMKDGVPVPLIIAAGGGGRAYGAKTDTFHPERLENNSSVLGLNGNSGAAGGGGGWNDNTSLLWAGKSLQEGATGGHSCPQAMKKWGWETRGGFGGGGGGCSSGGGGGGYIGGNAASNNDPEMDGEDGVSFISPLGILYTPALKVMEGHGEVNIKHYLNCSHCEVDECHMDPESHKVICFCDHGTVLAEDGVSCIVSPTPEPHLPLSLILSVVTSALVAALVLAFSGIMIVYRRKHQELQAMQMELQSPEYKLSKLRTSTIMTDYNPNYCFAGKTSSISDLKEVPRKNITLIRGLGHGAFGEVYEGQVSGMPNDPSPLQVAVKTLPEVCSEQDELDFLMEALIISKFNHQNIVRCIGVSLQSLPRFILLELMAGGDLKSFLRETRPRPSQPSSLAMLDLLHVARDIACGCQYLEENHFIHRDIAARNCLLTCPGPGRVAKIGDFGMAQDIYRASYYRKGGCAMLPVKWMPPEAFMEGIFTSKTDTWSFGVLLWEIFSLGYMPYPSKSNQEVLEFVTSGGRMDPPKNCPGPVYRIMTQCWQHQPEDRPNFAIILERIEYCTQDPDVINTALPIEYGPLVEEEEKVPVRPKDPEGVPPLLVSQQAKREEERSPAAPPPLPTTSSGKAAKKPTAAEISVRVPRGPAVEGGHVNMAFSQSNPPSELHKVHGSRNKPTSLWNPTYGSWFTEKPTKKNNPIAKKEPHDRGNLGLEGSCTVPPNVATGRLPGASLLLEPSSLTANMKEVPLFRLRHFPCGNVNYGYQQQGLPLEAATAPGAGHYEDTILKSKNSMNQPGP

## CN(C(=O)CN1CCOCC1)c1ccc2sc3c(-c4cccc5c(=O)cc(N6CC7CCC(C6)O7)oc45)cccc3c2c1 [NU5455]
  inhibition at 1 µM: 2%
